This is an account of results in patent publication US9125913B2, “Bcl-2-selective apoptosis-inducing agents for the treatment of cancer and immune diseases” (AbbVie Inc., priority 2008, dated 2015).

The subject of this test is GST-Bcl-2. As to the kind of experiment: TR-FRET binding assay, Bcl-2. Particulars: TR-FRET Ki values. The essentials: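 Compounds serially diluted in DMSO from 50 μM (2× starting concentration, 10% DMSO), mixed with GST-tagged protein, F-Bak peptide probe and Tb-labeled antibody, incubated 3 h at room temperature.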
A general note: TR-FRET usually uses a lanthanide donor and a delayed reading to cut background.
For `CN1CCN(Nc2ccc(S(=O)(=O)NC(=O)c3ccc(N4CCN(CC5=C(c6ccc(Cl)cc6)CC(C)(C)CC5)CC4)cc3Oc3cccc4[nH]cnc34)cc2[N+](=O)[O-])CC1` [EXAMPLE 453, 2-(1H-benzimidazol-4-yloxy)-4-(4-{[2-(4-chlorophenyl)-4,4-dimethylcyclohex-1-en-1-yl]methyl}piperazin-1-yl)-N-({4-[(4-methylpiperazin-1-yl)amino]-3-nitrophenyl}sulfonyl)benzamide], the “Binding selectivity ratio (Bcl-XL Ki/Bcl-2 Ki)” value (shortened to “Binding selectivity ratio”) was determined as 363.04. On to `COCCOCCN1CCO[C@H](CNc2ccc(S(=O)(=O)NC(=O)c3ccc(N4CCN(CC5=C(c6ccc(Cl)cc6)CC(C)(C)CC5)CC4)cc3Oc3cccc4[nH]cnc34)cc2[N+](=O)[O-])C1` [EXAMPLE 455, 2-(1H-benzimidazol-4-yloxy)-4-(4-{[2-(4-chlorophenyl)-4,4-dimethylcyclohex-1-en-1-yl]methyl}piperazin-1-yl)-N-({4-[({(2R)-4-[2-(2-methoxyethoxy)ethyl]morpholin-2-yl}methyl)amino]-3-nitrophenyl}sulfonyl)benzamide], for which the “Binding selectivity ratio” value was determined as 139.4. Next, `CC1(C)CCC(CN2CCN(c3ccc(C(=O)NS(=O)(=O)c4ccc(NCC5CCC(F)(F)CC5)c([N+](=O)[O-])c4)c(Oc4cccc5[nH]cnc45)c3)CC2)=C(c2ccc(Cl)cc2)C1` [EXAMPLE 456, 2-(1H-benzimidazol-4-yloxy)-4-(4-{[2-(4-chlorophenyl)-4,4-dimethylcyclohex-1-en-1-yl]methyl}piperazin-1-yl)-N-[(4-{[(4,4-difluorocyclohexyl)methyl]amino}-3-nitrophenyl)sulfonyl]benzamide]: 53.991.

With `CC(=O)N1CCOC(CNc2ccc(S(=O)(=O)NC(=O)c3ccc(N4CCN(CC5=C(c6ccc(Cl)cc6)CC(C)(C)CC5)CC4)cc3Oc3cccc4[nH]cnc34)cc2[N+](=O)[O-])C1` (centres unmarked) [EXAMPLE 457, N-[(4-{[(4-acetylmorpholin-2-yl)methyl]amino}-3-nitrophenyl)sulfonyl]-2-(1H-benzimidazol-4-yloxy)-4-(4-{[2-(4-chlorophenyl)-4,4-dimethylcyclohex-1-en-1-yl]methyl}piperazin-1-yl)benzamide], the “Binding selectivity ratio” value stood at 7414.

For the compound `CC1(C)CCC(CN2CCN(c3ccc(C(=O)NS(=O)(=O)c4ccc(NCC5CN(S(C)(=O)=O)CCO5)c([N+](=O)[O-])c4)c(Oc4cccc5[nH]cnc45)c3)CC2)=C(c2ccc(Cl)cc2)C1` (centres unmarked) [EXAMPLE 458, 2-(1H-benzimidazol-4-yloxy)-4-(4-{[2-(4-chlorophenyl)-4,4-dimethylcyclohex-1-en-1-yl]methyl}piperazin-1-yl)-N-{[4-({[4-(methylsulfonyl)morpholin-2-yl]methyl}amino)-3-nitrophenyl]sulfonyl}benzamide], the “Binding selectivity ratio” value turned out to be 237.24.

In the case of `CC1(C)CCC(CN2CCN(c3ccc(C(=O)NS(=O)(=O)c4cnc(OCC5(F)CCN(C(CF)CF)CC5)c(C(F)(F)F)c4)c(Oc4cccc5[nH]ncc45)c3)CC2)=C(c2ccc(Cl)cc2)C1` [EXAMPLE 459, 4-(4-{[2-(4-chlorophenyl)-4,4-dimethylcyclohex-1-en-1-yl]methyl}piperazin-1-yl)-N-{[6-({4-fluoro-1-[2-fluoro-1-(fluoromethyl)ethyl]piperidin-4-yl}methoxy)-5-(trifluoromethyl)pyridin-3-yl]sulfonyl}-2-(1H-indazol-4-yloxy)benzamide], the “Binding selectivity ratio” value came to 541.58.

For the compound `CC1(C)CCC(CN2CCN(c3ccc(C(=O)NS(=O)(=O)c4cnc(OCCC5CCCO5)c(Cl)c4)c(Oc4cccc5[nH]ncc45)c3)CC2)=C(c2ccc(Cl)cc2)C1` (centres unmarked) [EXAMPLE 461, 4-(4-{[2-(4-chlorophenyl)-4,4-dimethylcyclohex-1-en-1-yl]methyl}piperazin-1-yl)-N-{[5-chloro-6-(2-tetrahydrofuran-2-ylethoxy)pyridin-3-yl]sulfonyl}-2-(1H-indazol-4-yloxy)benzamide], the “Binding selectivity ratio” value was 39.44. Next, `CC1(C)CCC(CN2CCN(c3ccc(C(=O)NS(=O)(=O)c4cnc(OCC5CCC(F)(F)CC5)c(Cl)c4)c(Oc4cccc5[nH]cnc45)c3)CC2)=C(c2ccc(Cl)cc2)C1` [EXAMPLE 463, 2-(1H-benzimidazol-4-yloxy)-N-({5-chloro-6-[(4,4-difluorocyclohexyl)methoxy]pyridin-3-yl}sulfonyl)-4-(4-{[2-(4-chlorophenyl)-4,4-dimethylcyclohex-1-en-1-yl]methyl}piperazin-1-yl)benzamide]: 6043; `CC1(C)CCC(CN2CCN(c3ccc(C(=O)NS(=O)(=O)c4ccc(OCC5(F)CCOCC5)c(Cl)c4)c(Oc4cccc5[nH]ncc45)c3)CC2)=C(c2ccc(Cl)cc2)C1` [EXAMPLE 464, N-({3-chloro-4-[(4-fluorotetrahydro-2H-pyran-4-yl)methoxy]phenyl}sulfonyl)-4-(4-{[2-(4-chlorophenyl)-4,4-dimethylcyclohex-1-en-1-yl]methyl}piperazin-1-yl)-2-(1H-indazol-4-yloxy)benzamide]: 6432. Under `CC1(C)CC(c2ccc(Cl)cc2)=C(CN2CCN(c3ccc(C(=O)NS(=O)(=O)c4cnc(OCC5(F)CCOCC5)c(Cl)c4)c(Oc4cccc5[nH]ncc45)c3)CC2)CO1` [EXAMPLE 465, N-({5-chloro-6-[(4-fluorotetrahydro-2H-pyran-4-yl)methoxy]pyridin-3-yl}sulfonyl)-4-(4-{[4-(4-chlorophenyl)-6,6-dimethyl-5,6-dihydro-2H-pyran-3-yl]methyl}piperazin-1-yl)-2-(1H-indazol-4-yloxy)benzamide] stands 1472; under `O=C(NS(=O)(=O)c1ccc(NCC2CCOCC2)c([N+](=O)[O-])c1)c1ccc(N2CCN(Cc3ccccc3-c3ccc(Cl)cc3)CC2)cc1Oc1ccccc1` [Example 1, 4-{4-[(4′-chloro-1,1′-biphenyl-2-yl)methyl]piperazin-1-yl}-N-({3-nitro-4-[(tetrahydro-2H-pyran-4-ylmethyl)amino]phenyl}sulfonyl)-2-phenoxybenzamide], 85.4; under `CC1(C)CCC(c2ccc(Cl)cc2)=C(CN2CCN(c3ccc(C(=O)NS(=O)(=O)c4ccc(NCCCN5CCOCC5)c([N+](=O)[O-])c4)c(Oc4ccccc4)c3)CC2)C1` [Example 19, 4-(4-{[2-(4-chlorophenyl)-5,5-dimethylcyclohex-1-en-1-yl]methyl}piperazin-1-yl)-N-({4-[(3-morpholin-4-ylpropyl)amino]-3-nitrophenyl}sulfonyl)-2-phenoxybenzamide], 23.6. Next, `CC1(C)CCC(CN2CCN(c3ccc(C(=O)NS(=O)(=O)c4ccc(NCCCN5CCOCC5)c([N+](=O)[O-])c4)c(Oc4ccc5[nH]ncc5c4)c3)CC2)=C(c2ccc(Cl)cc2)C1` [Example 20, 4-(4-{[2-(4-chlorophenyl)-4,4-dimethylcyclohex-1-en-1-yl]methyl}piperazin-1-yl)-2-(1H-indazol-5-yloxy)-N-({4-[(3-morpholin-4-ylpropyl)amino]-3-nitrophenyl}sulfonyl)benzamide]: 32.8; `O=C(NS(=O)(=O)c1ccc(N2C(=O)C3CCC3C2=O)cc1)c1ccc(N2CCN(Cc3ccccc3-c3ccc(Cl)cc3)CC2)cc1Oc1ccccc1` (centres unmarked) [Example 28, 4-{4-[(4′-chloro-1,1′-biphenyl-2-yl)methyl]piperazin-1-yl}-N-{[4-(2,4-dioxo-3-azabicyclo[3.2.0]hept-3-yl)phenyl]sulfonyl}-2-phenoxybenzamide]: over 19.6. For `CC1CC(=O)NN=C1c1ccc(S(=O)(=O)NC(=O)c2ccc(N3CCN(Cc4ccccc4-c4ccc(Cl)cc4)CC3)cc2Oc2ccccc2)cc1` (centres unmarked) [Example 29, 4-{4-[(4′-chloro-1,1′-biphenyl-2-yl)methyl]piperazin-1-yl}-N-{[4-(4-methyl-6-oxo-1,4,5,6-tetrahydropyridazin-3-yl)phenyl]sulfonyl}-2-phenoxybenzamide], the “Binding selectivity ratio” value is reported as over 55.4. In the case of `CC1(C)CN(c2ccc(S(=O)(=O)NC(=O)c3ccc(N4CCN(Cc5ccccc5-c5ccc(Cl)cc5)CC4)cc3Oc3ccccc3)cc2)C1=O` [Example 30, 4-{4-[(4′-chloro-1,1′-biphenyl-2-yl)methyl]piperazin-1-yl}-N-{[4-(3,3-dimethyl-2-oxoazetidin-1-yl)phenyl]sulfonyl}-2-phenoxybenzamide], the “Binding selectivity ratio” value is over 6.4. For the compound `O=C(NS(=O)(=O)c1ccc(-n2ncc([N+](=O)[O-])n2)cc1)c1ccc(N2CCN(Cc3ccccc3-c3ccc(Cl)cc3)CC2)cc1Oc1ccccc1` [Example 31, 4-{4-[(4′-chloro-1,1′-biphenyl-2-yl)methyl]piperazin-1-yl}-N-{[4-(4-nitro-2H-1,2,3-triazol-2-yl)phenyl]sulfonyl}-2-phenoxybenzamide], the “Binding selectivity ratio” value is over 18.0. Take `O=C(NS(=O)(=O)c1ccccc1OCCN1CCCCC1)c1ccc(N2CCN(Cc3ccccc3-c3ccc(Cl)cc3)CC2)cc1Oc1ccccc1` [Example 32, 4-{4-[(4′-chloro-1,1′-biphenyl-2-yl)methyl]piperazin-1-yl}-2-phenoxy-N-{[2-(2-piperidin-1-ylethoxy)phenyl]sulfonyl}benzamide]: the “Binding selectivity ratio” value was over 10.8. Under `CCN1CCCC1CNC(=O)c1cc(S(=O)(=O)NC(=O)c2ccc(N3CCN(Cc4ccccc4-c4ccc(Cl)cc4)CC3)cc2Oc2ccccc2)ccc1OC` (centres unmarked) [Example 33, 4-{4-[(4′-chloro-1,1′-biphenyl-2-yl)methyl]piperazin-1-yl}-N-{[3-({[(1-ethylpyrrolidin-2-yl)methyl]amino}carbonyl)-4-methoxyphenyl]sulfonyl}-2-phenoxybenzamide] stands 49.9; under `O=C(NS(=O)(=O)c1ccc(NCC2CCOCC2)c([N+](=O)[O-])c1)c1ccc(N2CCN(Cc3ccccc3-c3ccc(Cl)cc3)CC2)cc1Oc1cccc2ccccc12` [Example 34, 4-{4-[(4′-chloro-1,1′-biphenyl-2-yl)methyl]piperazin-1-yl}-2-(1-naphthyloxy)-N-({3-nitro-4-[(tetrahydro-2H-pyran-4-ylmethyl)amino]phenyl}sulfonyl)benzamide], 44.3.
